Experimental findings from ChEMBL document CHEMBL5244280, “Evodiamine Lowers Blood Lipids by Up-Regulating the PPARγ/ABCG1 Pathway in High-Fat-Diet-Fed Mice” (J Nat Prod, 2021) are described below.

The assay has as its system HEK293. Nature of the assay: Agonist activity at human PPAR-beta expressed in HEK293 cells co-transfected with luciferase reporter plasmid assessed as receptor transactivation at 10 nM incubated for 18 hrs by luciferase reporter gene assay relative to control. It counts as cell-based. As to conditions: filed as agonist.

Regarding `Cc1cc(SCc2sc(-c3ccc(C(F)(F)F)c(F)c3)nc2C)ccc1OCC(=O)O`, the fold change (FC) amounted to 18.3.
